Measured values as given in patent US9346815B2, “5-chloro-2-difluoromethoxyphenyl pyrazolopyrimidine compounds, compositions and methods of use thereof” (Genentech, Inc., priority 2014, dated 2016).
Counter-ions that a name gives are not always drawn.

What was measured:
[1] = molecular target: isolated recombinant JAK1 kinase domain (Homo sapiens (Human), UniProt P23458); assay: JAK1 enzyme assay (Caliper LabChip, peptide phosphorylation); assay type: biochemical; conditions: isolated recombinant JAK1 kinase domain, 25 μM ATP
Sequence of isolated recombinant JAK1 kinase domain (P23458 875-1153): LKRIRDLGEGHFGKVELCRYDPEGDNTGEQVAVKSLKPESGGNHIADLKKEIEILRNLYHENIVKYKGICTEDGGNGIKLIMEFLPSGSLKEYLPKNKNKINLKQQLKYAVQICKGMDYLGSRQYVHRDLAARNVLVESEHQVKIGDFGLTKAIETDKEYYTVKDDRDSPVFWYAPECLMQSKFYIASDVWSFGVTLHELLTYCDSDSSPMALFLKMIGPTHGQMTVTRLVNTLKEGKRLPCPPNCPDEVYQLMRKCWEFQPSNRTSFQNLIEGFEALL

[2] = molecular target: isolated recombinant JAK2 kinase domain (Homo sapiens (Human), UniProt O60674); assay: JAK2 enzyme assay (Caliper LabChip, peptide phosphorylation); assay type: biochemical; conditions: 25 μM ATP
Sequence of isolated recombinant JAK2 kinase domain (O60674 849-1124): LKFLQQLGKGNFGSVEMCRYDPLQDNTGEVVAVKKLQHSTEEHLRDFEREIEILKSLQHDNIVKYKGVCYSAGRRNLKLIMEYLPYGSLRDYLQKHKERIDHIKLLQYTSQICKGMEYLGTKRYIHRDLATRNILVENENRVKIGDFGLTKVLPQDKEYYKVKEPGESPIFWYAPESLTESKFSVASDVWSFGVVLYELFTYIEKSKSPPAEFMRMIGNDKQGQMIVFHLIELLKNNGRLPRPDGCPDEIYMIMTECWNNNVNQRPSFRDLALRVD

[3] = system: JAK1-dependent STAT6 phosphorylation downstream of IL-13 stimulation in TF-1 human erythroleukemia cells; assay: JAK1 pathway assay in TF-1 cells (IL-13-pSTAT6, MSD); assay type: cell-based; conditions: Homo sapiens, TF-1, TF-1 cells, read-out: IL13-pSTAT6 EC50_TF-1
In short: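 BEAS-2B: complete growth medium, compound 1 hr at 37° C. TF-1: GM-CSF-starved overnight, serum-free OptiMEM, compound 30 min.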

CN(CCc1ccccc1)C1CCN(c2nc(-c3cc(Cl)ccc3OC(F)F)c(NC(=O)c3cnn4cccnc34)s2)CC1 [Example 192, N-[4-[5-chloro-2-(difluoromethoxy)phenyl]-2-[4-[methyl(2-phenylethyl)amino]-1-piperidyl]thiazol-5-yl]pyrazolo[1,5-a]pyrimidine-3-carboxamide]
Ki [1]: 5 nM | Ki [2]: 3.72 nM | EC50 [3]: 272 nM

CC(C)N1C[C@H]2CN(C(=O)Cn3cc(NC(=O)c4cnn5cccnc45)c(-c4cc(Cl)ccc4OC(F)F)n3)C[C@H]2C1 [Example 12, N-[1-[2-[(3aS,6aR)-2-isopropyl-1,3,3a,4,6,6a-hexahydropyrrolo[3,4-c]pyrrol-5-yl]-2-oxo-ethyl]-3-[5-chloro-2-(difluoromethoxy)phenyl]pyrazol-4-yl]pyrazolo[1,5-a]pyrimidine-3-carboxamide]
Ki [1]: 1.3 nM | Ki [2]: 1.17 nM | EC50 [3]: 15 nM

CC(C)Oc1ccc(CN(C)C2CCN(C(=O)Cn3cc(NC(=O)c4cnn5cccnc45)c(-c4cc(Cl)ccc4OC(F)F)n3)CC2)cc1 [Example 125, N-[3-[5-chloro-2-(difluoromethoxy)phenyl]-1-[2-[4-[(4-isopropoxyphenyl)methyl-methyl-amino]-1-piperidyl]-2-oxo-ethyl]pyrazol-4-yl]pyrazolo[1,5-a]pyrimidine-3-carboxamide]
Ki [1]: 0.61 nM | Ki [2]: 2.2 nM | EC50 [3]: 11.7 nM

CN1CC[C@@H]2CN(C(=O)Cn3cc(NC(=O)c4cnn5cccnc45)c(-c4cc(Cl)ccc4OC(F)F)n3)CC[C@@H]21 [Example 41, N-[1-[2-[(3aR,7aS)-1-methyl-3,3a,4,6,7,7a-hexahydro-2H-pyrrolo[3,2-c]pyridin-5-yl]-2-oxo-ethyl]-3-[5-chloro-2-(difluoromethoxy)phenyl]pyrazol-4-yl]pyrazolo[1,5-a]pyrimidine-3-carboxamide]
Ki [1]: 0.91 nM | Ki [2]: 1.47 nM | EC50 [3]: 8 nM

CN(C)C1CCN(C(=O)c2ccc(-c3nc(-c4cc(Cl)ccc4OC(F)F)c(NC(=O)c4cnn5cccnc45)s3)cc2)CC1 [Example 253, Pyrazolo[1,5-a]pyrimidine-3-carboxylic acid {4-(5-chloro-2-difluoromethoxy-phenyl)-2-[4-(4-dimethylamino-piperidine-1-carbonyl)-phenyl]-thiazol-5-yl}-amide hydrochloride]
Ki [1]: 0.56 nM | Ki [2]: 0.41 nM | EC50 [3]: 18.3 nM

CN(CCc1ccc(C(F)(F)F)cc1)C1CCN(C(=O)Cn2cc(NC(=O)c3cnn4cccnc34)c(-c3cc(Cl)ccc3OC(F)F)n2)CC1 [Example 97, N-[3-[5-chloro-2-(difluoromethoxy)phenyl]-1-[2-[4-[methyl-[2-[4-(trifluoromethyl)phenyl]ethyl]amino]-1-piperidyl]-2-oxo-ethyl]pyrazol-4-yl]pyrazolo[1,5-a]pyrimidine-3-carboxamide]
Ki [1]: 1.16 nM | Ki [2]: 1.97 nM | EC50 [3]: 187 nM

CN(C)C1CCN(C(=O)Cn2cc(NC(=O)c3cnn4cccnc34)c(-c3cc(Cl)ccc3OC(F)F)n2)C1 (stereo not drawn) [Example 65, N-[3-[5-chloro-2-(difluoromethoxy)phenyl]-1-[2-[3-(dimethylamino)pyrrolidin-1-yl]-2-oxo-ethyl]pyrazol-4-yl]pyrazolo[1,5-a]pyrimidine-3-carboxamide]
Ki [1]: 0.54 nM | Ki [2]: 0.69 nM | EC50 [3]: 9.4 nM

CN1CCCN(C(=O)Cn2cc(NC(=O)c3cnn4cccnc34)c(-c3cc(Cl)ccc3OC(F)F)n2)CC1 [Example 239, N-[3-[5-chloro-2-(difluoromethoxy)phenyl]-1-[2-(4-methyl-1,4-diazepan-1-yl)-2-oxo-ethyl]pyrazol-4-yl]pyrazolo[1,5-a]pyrimidine-3-carboxamide]
Ki [1]: 1.55 nM | Ki [2]: 2.38 nM | EC50 [3]: 8.6 nM

CN1CCN(CCCN2CCC(n3cc(NC(=O)c4cnn5cccnc45)c(-c4cc(Cl)ccc4OC(F)F)n3)CC2)C1=O [Example 154, N-[3-[5-chloro-2-(difluoromethoxy)phenyl]-1-[1-[3-(3-methyl-2-oxo-imidazolidin-1-yl)propyl]-4-piperidyl]pyrazol-4-yl]pyrazolo[1,5-a]pyrimidine-3-carboxamide]
Ki [1]: 1.42 nM | Ki [2]: 0.23 nM | EC50 [3]: 2.7 nM

CN(Cc1ccc(C(C)(C)C)cc1)C1CCN(C(=O)Cn2cc(NC(=O)c3cnn4cccnc34)c(-c3cc(Cl)ccc3OC(F)F)n2)CC1 [Example 120, N-[1-[2-[4-[(4-tert-butylphenyl)methyl-methyl-amino]-1-piperidyl]-2-oxo-ethyl]-3-[5-chloro-2-(difluoromethoxy)phenyl]pyrazol-4-yl]pyrazolo[1,5-a]pyrimidine-3-carboxamide]
Ki [1]: 0.3 nM | Ki [2]: 0.23 nM | EC50 [3]: 118 nM

CNC(=O)CN1CCC(n2cc(NC(=O)c3cnn4cccnc34)c(-c3cc(Cl)ccc3OC(F)F)n2)CC1 [Example 157, N-[3-[5-chloro-2-(difluoromethoxy)phenyl]-1-[1-[2-(methylamino)-2-oxo-ethyl]-4-piperidyl]pyrazol-4-yl]pyrazolo[1,5-a]pyrimidine-3-carboxamide]
Ki [1]: 1.32 nM | Ki [2]: 0.75 nM | EC50 [3]: 9.2 nM

Nc1nn2cccnc2c1C(=O)Nc1cn(C2CCN(CCCNC(=O)c3ccccc3)CC2)nc1-c1cc(Cl)ccc1OC(F)F [Example 145, 2-amino-N-[1-[1-(3-benzamidopropyl)-4-piperidyl]-3-[5-chloro-2-(difluoromethoxy)phenyl]pyrazol-4-yl]pyrazolo[1,5-a]pyrimidine-3-carboxamide]
Ki [1]: 0.57 nM | Ki [2]: 0.16 nM | EC50 [3]: 14.8 nM

CN(Cc1cccc(C(F)(F)F)c1)C1CCN(C(=O)Cn2cc(NC(=O)c3cnn4cccnc34)c(-c3cc(Cl)ccc3OC(F)F)n2)CC1 [Example 128, N-[3-[5-chloro-2-(difluoromethoxy)phenyl]-1-[2-[4-[methyl-[[3-(trifluoromethyl)phenyl]methyl]amino]-1-piperidyl]-2-oxo-ethyl]pyrazol-4-yl]pyrazolo[1,5-a]pyrimidine-3-carboxamide]
Ki [1]: 1.12 nM | Ki [2]: 3.09 nM | EC50 [3]: 42.5 nM

CN(CCOc1ccccc1)C1CCN(C(=O)Cn2cc(NC(=O)c3cnn4cccnc34)c(-c3cc(Cl)ccc3OC(F)F)n2)CC1 [Example 100, N-[3-[5-chloro-2-(difluoromethoxy)phenyl]-1-[2-[4-[methyl(2-phenoxyethyl)amino]-1-piperidyl]-2-oxo-ethyl]pyrazol-4-yl]pyrazolo[1,5-a]pyrimidine-3-carboxamide]
Ki [1]: 0.84 nM | Ki [2]: 2.01 nM | EC50 [3]: 5.4 nM

CN1C[C@H]2CCN(C(=O)Cn3cc(NC(=O)c4cnn5cccnc45)c(-c4cc(Cl)ccc4OC(F)F)n3)C[C@H]2C1 [Example 25, N-[1-[2-[(3aR,7aS)-2-methyl-3,3a,4,6,7,7a-hexahydro-1H-pyrrolo[3,4-c]pyridin-5-yl]-2-oxo-ethyl]-3-[5-chloro-2-(difluoromethoxy)phenyl]pyrazol-4-yl]pyrazolo[1,5-a]pyrimidine-3-carboxamide]
Ki [1]: 0.66 nM | Ki [2]: 1.61 nM | EC50 [3]: 121 nM

CCOC(=O)CCCN1CCC(n2cc(NC(=O)c3c(N)nn4cccnc34)c(-c3cc(Cl)ccc3OC(F)F)n2)CC1 [Example 175, ethyl 4-[4-[4-[(2-aminopyrazolo[1,5-a]pyrimidine-3-carbonyl)amino]-3-[5-chloro-2-(difluoromethoxy)phenyl]pyrazol-1-yl]-1-piperidyl]butanoate]
Ki [1]: 0.78 nM | Ki [2]: 0.13 nM | EC50 [3]: 13.4 nM

CN(Cc1cccc(Br)c1)C1CCN(C(=O)Cn2cc(NC(=O)c3cnn4cccnc34)c(-c3cc(Cl)ccc3OC(F)F)n2)CC1 [Example 122, N-[1-[2-[4-[(3-bromophenyl)methyl-methyl-amino]-1-piperidyl]-2-oxo-ethyl]-3-[5-chloro-2-(difluoromethoxy)phenyl]pyrazol-4-yl]pyrazolo[1,5-a]pyrimidine-3-carboxamide]
Ki [1]: 0.27 nM | Ki [2]: 0.17 nM | EC50 [3]: 24.9 nM

O=C(Nc1cn(CC(=O)N2CCC(N3CCCC3)CC2)nc1-c1cc(Cl)ccc1OC(F)F)c1cnn2cccnc12 [Example 69, N-[3-[5-chloro-2-(difluoromethoxy)phenyl]-1-[2-oxo-2-(4-pyrrolidin-1-yl-1-piperidyl)ethyl]pyrazol-4-yl]pyrazolo[1,5-a]pyrimidine-3-carboxamide]
Ki [1]: 0.86 nM | Ki [2]: 2.45 nM | EC50 [3]: 20.4 nM

CN(CC1Oc2ccccc2O1)C1CCN(C(=O)Cn2cc(NC(=O)c3cnn4cccnc34)c(-c3cc(Cl)ccc3OC(F)F)n2)CC1 [Example 112, N-[1-[2-[4-[1,3-benzodioxol-2-ylmethyl(methyl)amino]-1-piperidyl]-2-oxo-ethyl]-3-[5-chloro-2-(difluoromethoxy)phenyl]pyrazol-4-yl]pyrazolo[1,5-a]pyrimidine-3-carboxamide]
Ki [1]: 0.45 nM | Ki [2]: 1.01 nM | EC50 [3]: 96.3 nM

O=C(CCCN1CCC(n2cc(NC(=O)c3cnn4cccnc34)c(-c3cc(Cl)ccc3OC(F)F)n2)CC1)NC1COC1 [Example 153, N-[3-[5-chloro-2-(difluoromethoxy)phenyl]-1-[1-[4-(oxetan-3-ylamino)-4-oxo-butyl]-4-piperidyl]pyrazol-4-yl]pyrazolo[1,5-a]pyrimidine-3-carboxamide]
Ki [1]: 1.55 nM | Ki [2]: 0.27 nM | EC50 [3]: 36.5 nM

CN(C)CC1(c2ccccc2)CCN(C(=O)Cn2cc(NC(=O)c3cnn4cccnc34)c(-c3cc(Cl)ccc3OC(F)F)n2)CC1 [Example 80, N-[3-[5-chloro-2-(difluoromethoxy)phenyl]-1-[2-[4-[(dimethylamino)methyl]-4-phenyl-1-piperidyl]-2-oxo-ethyl]pyrazol-4-yl]pyrazolo[1,5-a]pyrimidine-3-carboxamide]
Ki [1]: 0.43 nM | Ki [2]: 0.87 nM | EC50 [3]: 4.9 nM
